Experimental data: the supplement of paper PMC7806825

Tested on: McpC ligand-binding domain (Salmonella Typhimurium SL1344)
Assay: protein melting temperature (Tm) in presence of compound (degrees C); higher = more thermal stabilisation (possible ligand binding)
Conditions: compound stock concentration: 10-20 mM, 2 uL in 10 uL reaction

| Structure (SMILES) | protein melting temperature (Biolog plate: PM03B) | protein melting temperature (Biolog plate: PM04A) | other results |
| --- | --- | --- | --- |
| N[C@@H](Cc1ccc(O)cc1)C(=O)O [L-Tyrosine] | 44.8 |  | protein melting temperature (Biolog plate: PM05): 43.9 |
| CC(C)[C@H](N)C(=O)O [L-Valine] | 45 |  | protein melting temperature (Biolog plate: PM02A): 44.5; protein melting temperature (Biolog plate: PM05): 43.5 |
| OC[C@@H](O)[C@@H](O[C@H]1O[C@H](CO)[C@@H](O)[C@H](O)[C@H]1O)[C@H](O)[C@@H](O)CO [Maltitol] |  |  | protein melting temperature (Biolog plate: PM02A): 44.5 |
| OC[C@H]1O[C@H](O[C@H]2[C@H](O)[C@@H](O)[C@@H](O[C@H]3[C@H](O)[C@@H](O)[C@@H](O)O[C@@H]3CO)O[C@@H]2CO)[C@H](O)[C@@H](O)[C@@H]1O [Maltotriose] |  |  | protein melting temperature (Biolog plate: PM01): 44 |
| OC[C@H]1O[C@@H](O[C@H]2[C@H](O)[C@@H](O)[C@H](O[C@H]3[C@H](O)[C@H](O)[C@H](O[C@@H]4[C@H](O)[C@H](O)[C@H](O)O[C@@H]4CO)O[C@@H]3CO)O[C@@H]2CO)[C@@H](O)[C@@H](O)[C@@H]1O [Mannan] |  |  | protein melting temperature (Biolog plate: PM02A): 44.8 |
| O=C(O)[C@H](O)[C@@H](O)[C@H](O)[C@H](O)CO[C@H]1O[C@H](CO)[C@H](O)[C@H](O)[C@H]1O [Melibionic acid] |  |  | protein melting temperature (Biolog plate: PM02A): 44.7 |
| CC1=CC(=O)c2ccccc2C1=O [Menadione] |  |  | protein melting temperature (Biolog plate: PM05): 42.6 |
| CSCC[C@H](N)C(=O)N[C@@H](C)C(=O)O [Met-Ala] | 44.9 |  |  |
| CS(=O)(=O)O [Methane Sulfonic acid] |  | 44.4 |  |
| CN [Methylamine] | 45.8 |  |  |
| O=P(O)(O)CP(=O)(O)O [Methylene Diphosphonic acid] |  | 44 |  |
| COC(=O)C(C)=O [Methylpyruvate] |  |  | protein melting temperature (Biolog plate: PM01): 44.9 |
| COC(=O)CCC(=O)O [Mono-Methylsuccinate] |  |  | protein melting temperature (Biolog plate: PM01): 45 |
| O=C(O)[C@@H](O)[C@H](O)[C@H](O)[C@@H](O)C(=O)O [Mucic acid] |  |  | protein melting temperature (Biolog plate: PM01): 43.7 |
| CC(=O)N[C@H]1C(O)O[C@H](CO)[C@H](O)[C@@H]1O (stereo partly drawn) [N-Acetyl-D-Galactosamine] | 44.6 |  | protein melting temperature (Biolog plate: PM02A): 44.6 |
| CC(=O)N[C@@H](CO)[C@@H](O)[C@H](O)[C@H](O)CO [N-Acetyl-D-Glucosaminitol] |  |  | protein melting temperature (Biolog plate: PM02A): 44.1 |
| CC(=O)N[C@@H]1C(O)O[C@H](CO)[C@@H](O)[C@@H]1O (stereo partly drawn) [N-Acetyl-D-Mannosamine] | 45.5 |  | protein melting temperature (Biolog plate: PM01): 44.8 |
| CC(=O)N[C@@H](CS)C(=O)O [N-Acetyl-L-Cysteine] |  | 43.7 |  |
| CC(=O)N[C@H]1[C@H]([C@H](O)[C@H](O)CO)OC(O)(C(=O)O)C[C@@H]1O (stereo not given in full) [N-Acetyl-Neuraminic acid] |  |  | protein melting temperature (Biolog plate: PM02A): 44.4 |
| CCCCCN [N-Amylamine] | 44.9 |  |  |
| CCCCN [N-Butylamine] | 45.3 |  |  |
| O=C(O)CC[C@@H](C(=O)O)N1C(=O)c2ccccc2C1=O [N-Phthaloyl-L-Glutamic acid] | 44.9 |  |  |

| Structure (SMILES) | protein melting temperature (Biolog plate: PM03B) | protein melting temperature (Biolog plate: PM04A) | other results |
| --- | --- | --- | --- |
| NC(=O)c1cccnc1 [Nicotinamide] |  |  | protein melting temperature (Biolog plate: PM05): 43.7 |
| O=[N+]([O-])O [Nitrate] | 46 |  |  |
| O=NO [Nitrite] | 46 |  |  |
| N[C@H](COP(=O)(O)O)C(=O)O [O-Phospho-D-Serine] |  | 43.9 |  |
| N[C@H](Cc1ccc(OP(=O)(O)O)cc1)C(=O)O [O-Phospho-D-Tyrosine] |  | 43.7 |  |
| N[C@@H](COP(=O)(O)O)C(=O)O [O-Phospho-L-Serine] |  | 43.9 |  |
| C[C@@H](OP(=O)(O)O)[C@H](N)C(=O)O [O-Phospho-L-Threonine] |  | 44 |  |
| N[C@@H](Cc1ccc(OP(=O)(O)O)cc1)C(=O)O [O-Phospho-L-Tyrosine] |  | 43.7 |  |
| NCCOP(=O)(O)O [O-Phosphoryl-Ethanolamine] |  | 43.9 |  |
| O=C(O)c1cc(=O)[nH]c(=O)[nH]1 [Orotic acid] |  |  | protein melting temperature (Biolog plate: PM05): 43 |
| O=C(O)CC(=O)C(=O)O [Oxaloacetic acid] |  |  | protein melting temperature (Biolog plate: PM05): 43.8 |
| O=C(CO)[C@@H](O)[C@H](O)[C@H](O)CO[C@H]1O[C@H](CO)[C@@H](O)[C@H](O)[C@H]1O [Palatinose] |  |  | protein melting temperature (Biolog plate: PM02A): 44 |
| O=C1NC(=O)C(=O)N1 [Parabanic acid] | 44 |  |  |
| O=C(O)[C@H]1O[C@@H](O)[C@H](O)[C@@H](O)[C@H]1O [Pectin] |  |  | protein melting temperature (Biolog plate: PM02A): 45 |
| O=C(O)COP(=O)(O)O [Phospho-Glycolic acid] |  | 43.5 |  |
| CN(CC(=O)O)C(=N)NP(=O)(O)O [Phosphocreatine] |  | 44.3 |  |
| C=C(OP(=O)(O)O)C(=O)O [Phosphoenol Pyruvate] |  | 43.9 |  |
| O=C(O)CP(=O)(O)O [Phosphono Acetic acid] |  | 44 |  |
| C[N+](C)(C)CCOP(=O)(O)O [Phosphoryl Choline] |  | 43.7 |  |
| CCC(=O)O [Propionic acid] |  |  | protein melting temperature (Biolog plate: PM01): 44.9 |
| NCCCCN [Putrescine] | 44 |  | protein melting temperature (Biolog plate: PM02A): 43.7; protein melting temperature (Biolog plate: PM05): 44.1 |
